Assay results as given in patent US20230034660A1, “PEPTIDES THAT ENHANCE NMDA RECEPTOR FUNCTION AND USE THEREOF” (University of Pittsburgh - Of the Commonwealth System of …, priority 2019, published 2023).

How the values were obtained:
NMDAR [1] = assay: NMDAR Lev-EPSCs in auditory cortex L2/3 principal neurons, ZX1 effect; format: cell-based, ICR mice; conditions: auditory cortex slices incubated with peptide or scramble; 100 μM ZX1; +40 mV
From the text: (FIG. 11A) Left: schematic illustration of stereotaxic injections in ICR mice, of retrograde microspheres of different colors to label corticocallosal (CCal) and corticollicular (CCol) neurons. CCol neurons were used to identify AC, and viral vector (AAV) for expression of channel rhodopsin (ChR2) in AC L2/3 PNs. Right: schematic illustrating slice electrophysiology experiment involving photostimulation of ChR2 expressing AC L2/3 PNs while recording from adjacent L2/3 PNs. (FIG. 11B) Top: representative traces of L2/3 PN NMDAR Lev-EPSCs (at +40 mV) evoked by a 0.15-ms duration pulse photostimulation of adjacent PNs in control and after 100 μM ZX1, in slices incubated with scramble. Bottom: same as the top panel in slices incubated with the peptide. (FIG. 11C) Time course of the average amplitude of NMDAR Lev-EPSCs before and after ZX1 in slices incubated with scramble and peptide. During the entire experiment application of DNQX and SR 95531 blocked AMPARs and GABAARs, correspondingly. (FIG. 11D) Average effect of ZX1 on L2/3 PN NMDAR Lev-EPSCs amplitudes normalized to control. Peptide ZX1 effect=99.02±3.8%, P=0.521, paired 1-tests, n=3 cells from two mice: Scramble ZX1 effect=159.4±15.8%, P=0.068, paired t-tests, n=4 cells from three mice. The difference is statistically significant at P=0.034, Unpaired t-test. Asterisk denotes a statistically significant difference at P<0.05. […]

[2] = system: presynaptic release of glutamate; assay: Paired pulse ratio and coefficient of variance of AMPAR responses (release probability); format: cell-based, mice; conditions: peptide-treated slices; for paired pulse ratio (PPR): AMPAR EPSCs, 50 millisecond interval; for coefficient of variance (CV): AMPAR responses
Method: For brain slice recordings, whole-cell recordings of NMDAR EPSCs in slice DCN cartwheel cells were obtained with micropipettes (3-6 MΩ) containing 128 mM Cs(CH3O3S), 4 mM MgCl2·6H2O, 4 mM Na2ATP, 10 mM HEPES, 0.3 mM Tris-GTP, 10 mM Tris-phosphocreatine, 1 mM CsEGTA, 1 mM, QX-314, 3 mM sodium ascorbate, pH=˜7.2, 300 mOsm. Cartwheel cells were identified by the presence of complex spikes (Zhang and Oertel, 1993; Golding and Oertel, 1997; Tzounopoulos et al., 2004) in cell-attached configuration before break-in or in response to current injections in current-clamp mode after break-in. NMDAR EPSCs were recorded in voltage clamp mode, at a holding potential of +40 mV, in the presence of DNQX (20 μM, AMPA and kainate receptor antagonist), SR95531. (20 μM, GABAAR antagonist), and strychnine (1 μM, GlyR antagonist), ZX1 (100 μM) was included in the pipette in experiments where noted. Whole-cell recordings of AMPAR EPSCs were obtained with micropipettes containing […], 4.5 mM MgCl2·6 H2O, 14 mM Tris-phosphocreatine, 9 mM HEPES, 0.1 mM EGTA, 4 mM Na2ATP, 0.3 mM Tris-GTP, 10 mM sucrose, pH=7.3, 295 mOsm. AMPA EPSCs were recorded in voltage clamp mode at a holding potential of −70 mV in the presence of SR9551. (20 μM, GABAAR antagonist) and strychnine (1 μM, GlyR antagonist). Both NMDAR and […] EPSCs were evoked using an Isoflex stimulator (A.M.P.I. 0.1 ms pulses) stimulating parallel fibers with voltage pulses through a theta glass electrode. Stimulus intensity was adjusted to a level that consistently evoked stable responses. For paired pulse experiments, inter-stimulus interval was 50 milliseconds. Once a stable response was established, ZX1 (100 μM) was added to the recording solution to measure the effect of zinc chelation on EPSCs. The series resistance was not compensated because the currents measured were relatively small, therefore there was minimum voltage clamp error. The series resistance was monitored during the recording by delivering −5 mV voltage steps for 50 milliseconds for each sweep. The peak current value (ΔIpeak) generated immediately after the step in the command potential was used to calculate series resistance (Rseries) using the following formula: Rseries=−5 mv/ΔIpeak. […] All values reported are animal-based values, in cases where multiple cells were recorded from the same animal preparation, the average of cells is presented (Lazic et al., 2018). […]
Next, it was evaluated whether a change in presynaptic release of glutamate could contribute to the observed actions of N2AZ on NMDAR-mediated synaptic currents. […] To measure PPR, two stimuli were given in rapid succession and the ratio of the second EPSC to the first was calculated. […]

NMDAR [3] = assay: NMDAR EPSCs in DCN cartwheel cells in brain slices, ZX1 potentiation; format: cell-based, mice; conditions: ZX1 100 μM; for ZX1 potentiation of NMDAR-mediated synaptic currents, 20 Hz: slices treated with peptide 3 μM at least 1 hour, parallel fibers stimulated at 20 Hz, +40 mV

| Sequence | ZX1 effect on L2/3 PN NMDAR Lev-EPSCs amplitudes normalized to control (NMDAR [1]) [%] | paired pulse ratio (PPR) [2] | coefficient of variance (CV) [2] | ZX1 potentiation of NMDAR-mediated synaptic currents, WT littermates (NMDAR [3]; N2AZ-treated slices (3 μM) from WT littermate controls, 20 Hz) [%] | ZX1 potentiation of NMDAR-mediated synaptic currents, ZnT3 KO (NMDAR [3]; N2AZ-treated slices (3 μM) from ZnT3 null mice, 20 Hz) [%] | ZX1 potentiation of NMDAR-mediated synaptic currents, 20 Hz (NMDAR [3]) [%] | ZX1 potentiation of NMDAR EPSCs, 100 Hz (NMDAR [3]; slices treated with peptide 3 μM, 100 Hz stimulation frequency) [%] |
| --- | --- | --- | --- | --- | --- | --- | --- |
| NDSYLRSSL [Peptide N2AZ] | 99.02±3.8 | 2.29±0.07 | 0.26±0.031 | 5.60±4.38 | 11.9±6.90 | 19.39±5.82 | 1.95±4.33 |
| SNLSDSYDR [scN2AZ, reference compound] | 159.4±15.8 | 2.18±0.26 | 0.28±0.030 | – | – | 47.30±10.14 | – |
